Results taken from patent US20070166299A1, “TREATMENT FOR EMBOLIC STROKE” (priority 2005, published 2007).
Like-named read-outs stand apart in the source and are kept apart here.

How the values were obtained:
[1] = test system: small clot embolic strokes in rabbits; assay: rabbit small clot embolic stroke model (RSCEM), quantal analysis of behavior; assay type: in vivo
Source text: The invention used a rabbit small clot embolic stroke model (RSCEM) that reproduces many facets of human AIS including a well-defined clinical endpoint. The RSCEM utilizes administration of a suspension of small blood clots to induce strokes, and behavioral deficits that can be measured quantitatively. Moreover, the RSCEM is useful to conduct studies testing the effects of single drugs or drug combinations such as a neuroprotective agent (e.g., NXY-059) plus a thrombolytic (Tenecteplase, Alteplase, Desmoteplase and the like). Since it is likely that a drug combination will be used for patient management it is important to determine whether there are any interactions (positive or negative) between the compounds when administered following embolic strokes.
Methods: Male New Zealand white rabbits were anesthetized using halothane (5% induction, 2% maintenance by facemask), the bifurcation of the right carotid artery was exposed and the external carotid was ligated just distal to the bifurcation, where a catheter was inserted into the common carotid and secured with ligatures. The incision was closed around the catheter with the distal ends left accessible outside the neck; the catheter was filled with heparinized saline and plugged with an injection cap. Rabbits were allowed to recover from anesthesia for a minimum of 3 h until they awoke and behaved normally.
For the RSCEM, microclots were prepared from blood drawn from a donor rabbit and allowed to clot at 37° C. All rabbits in the study received injections of the same sized microclots. For embolization, clot particles were rapidly injected through the carotid catheter and both the syringe and catheter were flushed with 5 ml of normal saline.
Treatment Regimens: (A) Dose-Response Curve: NXY-059 was administered IV at a dose of 0.1-100 mg/kg infused over 30 min beginning 1 hour following embolization. (B) Therapeutic Window: NXY-059 (100 mg/kg) was given beginning 1, 3 or 6 hours following embolization. (C) Tenecteplase Dosing: Tenecteplase was administered IV at a dose of 0.9 mg/kg as a bolus injection given over one minute was administered 1 or 6 hours following embolization. (D) Combination studies: NXY-059 was administered IV at a dose of 100 mg/kg infused over 30 min and Tenecteplase was administered IV at a dose of 0.9 mg/kg beginning 1 or 6 hours following embolization.
Quantal Dose-Response Analysis: For the RSCEM, a quantal dose-response data analysis technique was used. A wide range of lesion volumes is induced to generate both normal and abnormal animals. Using 3 or more different doses of microclots generated each quantal analysis curve. […] Each animal is rated as either normal or abnormal (including dead animals), and inter-rater variability is very low (<5%). […] With this simple rating system, the composite result for a group of animals is quite reproducible. The P50 values are then calculated. These parameters are measures of the amount of microclots (in mg) that produce neurologic dysfunction in 50% of a group of animals. A separate curve is generated for each treatment condition that was tested. The data were analyzed using the t-test, which included the Bonferroni correction where appropriate.
Using the RSCEM model as described above male New Zealand white rabbits weighing 2.2-2.6 Kg were anesthetized and a catheter was inserted into the common carotid artery through which microclots were injected. Briefly, the bifurcation of one carotid artery was exposed and the external carotid was ligated just distal to the bifurcation. A catheter was inserted into the common carotid and secured with ligatures. The incision was closed around the catheter so that the distal end was accessible outside the animal's neck. The catheter was then filled with heparinized saline and plugged with an injection cap. Rabbits were allowed to recover from anesthesia until they were awake and behaving normally. […]

[2] = test system: spinal cord ischemia induced by temporary occlusion of the infrarenal aorta; assay: rabbit reversible spinal cord ischemia model (RSCIM); assay type: in vivo
Procedure: In a rabbit reversible spinal cord ischemia model (RSCIM). ABHS was administered (25 mg/kg) intravenously (i.v.) 5 or 30 min following the start of occlusion to groups of rabbits exposed to ischemia induced by temporary occlusion of the infrarenal aorta. The group P50 represents the duration of ischemia (min) associated with a 50% probability of resultant permanent paraplegia.

[3] = cited from earlier work
[4] = ABHS 25 mg/kg, 60 min following embolization
[5] = ABHS 25 mg/kg, 180 min following embolization
[6] = ABHS 25 mg/kg i.v., 5 min post-occlusion

Compound: CC(=O)[C@H]1CC[C@H]2[C@@H]3CC[C@@H]4C[C@H](OC(=O)CCC(=O)O)CC[C@]4(C)[C@H]3CC[C@]12C [ABHS, 3-alpha-ol-5-beta-pregnan-20-one hemisuccinate]
- Observation ([1]; ABHS 25 mg/kg, 5 min following embolization): Sedation
- Observation [1, 4]: Sedation
- P50 [1, 4]: 1.05 ± 0.24 mg
- Observation [1, 5]: Sedation
- P50 [1, 5]: 1.42 ± 0.35 mg
- effect on therapeutic window for tPA ([1]; ABHS with tPA (FIG. 7)): increases the therapeutic window for tPA
- duration of sedation (loss of righting reflex) after drug injection ([1]; IV ABHS administration to rabbits): 2 to 3 h
- P50 (duration of ischemia associated with 50% probability of permanent paraplegia) [2, 6]: 49.18 ± 10.44 min
- increase of P50 over control [2, 6]: 110%
- tolerance to ischemia ([2]; ABHS administered 30 min following the start of occlusion): increased the tolerance to ischemia
- persistence of effect ([2]; ABHS injected 5 min following the start of ischemia and again 24 h after ischemia): persistent effect of the drug at 48 h

Compound: O=c1cc(-c2ccccc2)oc2cc(O)c(O)c(O)c12 [Baicalein, 5,6,7 trihydroxyflavone]
- P50 ([1]; Baicalein 100 mg/kg SC, 5 minutes following embolization): 2.85 ± 0.64 mg

Compound: O=C(C=Cc1ccc(O)c(O)c1)OC1CC(O)(C(=O)O)CC(O)C1O (stereo not drawn) [CGA, 3-[[3-(3,4-Dihydroxyphenyl)-1-oxo-2-propenyl]oxy] 1,4,5-trihydroxycyclohexanecarboxylic acid]
- P50 ([1]; CGA 50 mg/kg IV, 5 minutes following embolization, behavior 24 hours): 3.61 ± 0.52 mg
- P50 ([1]; CGA 50 mg/kg single bolus, 1 hour post-embolization): 2.57 ± 0.28 mg
- P50 ([1]; CGA 50 mg/kg, 3 hours following embolization): 1.22 ± 0.24 mg

Compound: O=c1c(O)c(-c2ccc(O)c(O)c2)oc2cc(O)ccc12 [Fisetin, fisetin]
- P50 ([1]; Fisetin 50 mg/kg IV, 5 minutes following embolization): 2.18 ± 0.42 mg

Compound: CC(C)(C)[N+]([O-])=Cc1ccc(S(=O)(=O)O)cc1S(=O)(=O)O.[Na].[Na] [NXY-059, disodium 2,4-disulfophenyl-N-tert-butylnitrone]
- P50 ([1]; NXY-059 100 mg/kg IV, 1 hour following embolization, measured 24 hours after embolization): 2.81 ± 0.46 mg
- P50 ([1]; NXY-059 100 mg/kg, 3 hours following embolization): 1.78 ± 0.42 mg
- increase of P50 over vehicle control ([1]; NXY-059 1-100 mg/kg administered following embolization): 100-134%
- effect on P50 (dose-response) ([1]; NXY-059 doses from 1-100 mg/kg, 1 hour following embolization): significantly increased the P50

Compound: CC12CC3CC(C)(C1)CC(N)(C3)C2 [memantine]
- effect on efficacy of low-dose tPA ([1]; memantine with low-dose tPA (FIG. 8)): increases the efficacy of low-dose tPA: synergy

Compound: tPA: thrombolytic, tissue plasminogen activator; FDA-approved treatment for acute ischemic stroke
- P50 ([1]; low-dose tPA 0.9 mg/kg alone, 60 min following embolization): 1.25 ± 0.25 mg
- P50 ([1]; tPA 3.3 mg/kg alone, 60 min after embolization (ABHS study)): 2.69 ± 0.19 mg
- P50 ([1]; tPA 3.3 mg/kg, 1 hour after embolization (CGA study)): 2.89 ± 0.29 mg
- P50 ([1]; tPA 3.3 mg/kg, 3 hours after embolization (CGA study)): 1.54 ± 0.27 mg
- increase of hemorrhage rate ([3]; high dose of tPA 3.3 mg/kg): 52%
- increase of hemorrhage rate ([3]; low dose of tPA 0.9 mg/kg): 28%
